Columns and labels:
MDA-MB-231 [1] = test: Induction of apoptosis in human MDA-MB-231 cells assessed as early apoptotic cells at 3 uM measured after 24 hrs by Annexin V/propidium iodide (PI) double staining based flow cytometric analysis (reference value: 1.99 %); format: functional
MDA-MB-468 [2] = test: Induction of apoptosis in human MDA-MB-468 cells assessed as late apoptotic cells at 3 uM measured after 24 hrs by Annexin V/propidium iodide (PI) double staining based flow cytometric analysis (reference value: 2.24 %); format: functional
[3] = Selectivity ratio of IC50 for cytotoxicity against human MCF-10A cells to IC50 for antiproliferative activity against human MDA-MB-231 cells; format: toxicity, cell-based; details: MCF-10A cells versus MDA-MB-231 cells, read-out: Ratio IC50
MDA-MB-468 [4] = test: Induction of apoptosis in human MDA-MB-468 cells assessed as early apoptotic cells at 3 uM measured after 24 hrs in presence of Z-VAD-FMK by Annexin V/propidium iodide (PI) double staining based flow cytometric analysis (reference value: 4.97 %); format: functional
[5] = molecular target: Signal transducer and activator of transcription 3 (Homo sapiens, UniProt P40763); test: Inhibition of STAT3 (unknown origin) activation transfected in HEK293 preincubated for 30 mins followed by IL-6 addition and measured after 24 hrs by luciferase reporter gene assay; format: cell-based
Chain of Signal transducer and activator of transcription 3 (P40763 whole entry): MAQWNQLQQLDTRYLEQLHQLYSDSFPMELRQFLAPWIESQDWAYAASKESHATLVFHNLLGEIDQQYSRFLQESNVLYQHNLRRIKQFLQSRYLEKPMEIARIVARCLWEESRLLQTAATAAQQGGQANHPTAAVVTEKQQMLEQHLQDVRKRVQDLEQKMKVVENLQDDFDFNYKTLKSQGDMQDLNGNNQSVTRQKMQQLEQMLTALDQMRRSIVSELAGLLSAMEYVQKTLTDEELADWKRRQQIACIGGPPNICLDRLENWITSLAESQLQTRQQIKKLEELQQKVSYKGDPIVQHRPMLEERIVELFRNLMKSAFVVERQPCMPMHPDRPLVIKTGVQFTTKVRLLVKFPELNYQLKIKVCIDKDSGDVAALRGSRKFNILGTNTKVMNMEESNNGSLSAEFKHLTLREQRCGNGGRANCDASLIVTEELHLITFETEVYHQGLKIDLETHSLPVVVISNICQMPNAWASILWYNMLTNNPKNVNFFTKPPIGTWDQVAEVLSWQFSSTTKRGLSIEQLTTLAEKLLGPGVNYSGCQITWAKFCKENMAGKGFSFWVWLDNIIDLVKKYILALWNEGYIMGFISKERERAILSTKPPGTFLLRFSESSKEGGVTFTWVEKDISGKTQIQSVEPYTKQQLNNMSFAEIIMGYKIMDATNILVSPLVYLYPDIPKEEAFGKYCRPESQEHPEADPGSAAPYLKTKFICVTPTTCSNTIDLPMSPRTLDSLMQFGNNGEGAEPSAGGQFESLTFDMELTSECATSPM

MDA-MB-231 [6] = test: Induction of apoptosis in human MDA-MB-231 cells assessed as late apoptotic cells at 3 uM measured after 24 hrs by Annexin V/propidium iodide (PI) double staining based flow cytometric analysis (reference value: 1.84 %); format: functional
MDA-MB-468 [7] = test: Antiproliferative activity against human MDA-MB-468 cells assessed as reduction in cell viability incubated for 48 hrs by MTT assay; format: functional, cell-based; details: MDA-MB-468, 48 h
MDA-MB-231 [8] = test: Induction of apoptosis in human MDA-MB-231 cells assessed as early apoptotic cells at 1.5 uM measured after 24 hrs by Annexin V/propidium iodide (PI) double staining based flow cytometric analysis (reference value: 1.98 %); format: functional
MDA-MB-468 [9] = test: Induction of apoptosis in human MDA-MB-468 cells assessed as late apoptotic cells at 3 uM measured after 24 hrs in presence of Z-VAD-FMK by Annexin V/propidium iodide (PI) double staining based flow cytometric analysis (reference value: 2.12 %); format: functional
MDA-MB-468 [10] = test: Induction of apoptosis in human MDA-MB-468 cells assessed as early apoptotic cells at 1.5 uM measured after 24 hrs by Annexin V/propidium iodide (PI) double staining based flow cytometric analysis (reference value: 2.94 %); format: functional
MDA-MB-231 [11] = test: Induction of apoptosis in human MDA-MB-231 cells assessed as late apoptotic cells at 1.5 uM measured after 24 hrs by Annexin V/propidium iodide (PI) double staining based flow cytometric analysis (reference value: 2.22 %); format: functional
MDA-MB-231 [12] = test: Induction of apoptosis in human MDA-MB-231 cells assessed as early apoptotic cells at 3 uM measured after 24 hrs in presence of Z-VAD-FMK by Annexin V/propidium iodide (PI) double staining based flow cytometric analysis (reference value: 1.99 %); format: functional
MDA-MB-231 [13] = test: Induction of apoptosis in human MDA-MB-231 cells assessed as early apoptotic cells at 3 uM measured after 24 hrs by Annexin V/propidium iodide (PI) double staining based flow cytometric analysis (reference value: 1.98 %); format: functional
MDA-MB-468 [14] = test: Induction of apoptosis in human MDA-MB-468 cells assessed as early apoptotic cells at 3 uM measured after 24 hrs by Annexin V/propidium iodide (PI) double staining based flow cytometric analysis (reference value: 2.94 %); format: functional
MDA-MB-231 [15] = test: Induction of apoptosis in human MDA-MB-231 cells assessed as late apoptotic cells at 3 uM measured after 24 hrs in presence of Z-VAD-FMK by Annexin V/propidium iodide (PI) double staining based flow cytometric analysis (reference value: 1.84 %); format: functional
MCF7 = test: Antiproliferative activity against human MCF7 cells incubated for 48 hrs by MTT assay; format: functional, cell-based; details: MCF7, 48 h
MDA-MB-468 [16] = test: Induction of apoptosis in human MDA-MB-468 cells assessed as early apoptotic cells at 3 uM measured after 24 hrs by Annexin V/propidium iodide (PI) double staining based flow cytometric analysis (reference value: 4.97 %); format: functional
MDA-MB-231 [17] = test: Antiproliferative activity against human MDA-MB-231 cells assessed as reduction in cell viability incubated for 48 hrs by MTT assay; format: functional, cell-based; details: MDA-MB-231, 48 h
MDA-MB-468 [18] = test: Induction of apoptosis in human MDA-MB-468 cells assessed as late apoptotic cells at 1.5 uM measured after 24 hrs by Annexin V/propidium iodide (PI) double staining based flow cytometric analysis (reference value: 2.24 %); format: functional
MDA-MB-468 [19] = test: Induction of apoptosis in human MDA-MB-468 cells assessed as late apoptotic cells at 3 uM measured after 24 hrs by Annexin V/propidium iodide (PI) double staining based flow cytometric analysis (reference value: 2.12 %); format: functional
[20] = Cytotoxicity against human MCF-10A cells; format: toxicity, cell-based
MDA-MB-231 [21] = test: Induction of apoptosis in human MDA-MB-231 cells assessed as late apoptotic cells at 3 uM measured after 24 hrs by Annexin V/propidium iodide (PI) double staining based flow cytometric analysis (reference value: 2.22 %); format: functional

O=C1C(=O)c2c(oc3c2CCN(CCN2CCCCC2)C3=O)-c2ccccc21 gave an Activity (MDA-MB-231 [1]) of 8.01%, an Activity (MDA-MB-468 [2]) of 37.57% and a selectivity ratio [3] of about 6. The Activity (MDA-MB-468 [4]) was 9.18%, the IC50 [5] was 400 nM and the Activity (MDA-MB-231 [6]) was 27.43%. It also gave an IC50 (MDA-MB-468 [7]) of 1480 nM, an Activity (MDA-MB-231 [8]) of 2.31% and an Activity (MDA-MB-468 [9]) of 8.47%. The Activity (MDA-MB-468 [10]) was 7.36%, the Activity (MDA-MB-231 [11]) was 5.26% and the Activity (MDA-MB-231 [12]) was 4.67%. The Activity (MDA-MB-231 [13]) was 2.94%, the Activity (MDA-MB-468 [14]) was 14.73% and the Activity (MDA-MB-231 [15]) was 13.99%. For the same compound, the IC50 (MCF7) was 1050 nM, the Activity (MDA-MB-468 [16]) was 17.75% and the IC50 (MDA-MB-231 [17]) was 520 nM. It also gave an Activity (MDA-MB-468 [18]) of 4.07%, an Activity (MDA-MB-468 [19]) of 52.62% and an IC50 [20] of 3330 nM. The Activity (MDA-MB-231 [21]) was 25.08%.

Source: ChEMBL document CHEMBL6103591, “Discovery of naphthoquinone-furo-piperidone derivatives as dual targeting agents of STAT3 and NQO1 for the treatment of breast cancer” (Eur J Med Chem, 2025)
